Source: patent publication US20260069588A1, “VEPDEGESTRANT FOR USE IN TREATING CANCER” (Arvinas Operation, Inc., priority 2022, published 2026)

Experiments:
[1] = tested on: BALB/c 3T3 mouse fibroblasts; experiment: In vitro 3T3 phototoxicity; assay type: cell-based
ER = target: T1, ER (Homo sapiens, UniProt P03372); experiment: Tumor ER levels in MCF7 xenograft; assay type: in vivo, mouse; parameters: from tissue; host or cells: MCF7/estradiol xenograft tumour in mice; details: all doses (3, 10, 30 mg/kg), study termination
T1 sequence (P03372 1-595): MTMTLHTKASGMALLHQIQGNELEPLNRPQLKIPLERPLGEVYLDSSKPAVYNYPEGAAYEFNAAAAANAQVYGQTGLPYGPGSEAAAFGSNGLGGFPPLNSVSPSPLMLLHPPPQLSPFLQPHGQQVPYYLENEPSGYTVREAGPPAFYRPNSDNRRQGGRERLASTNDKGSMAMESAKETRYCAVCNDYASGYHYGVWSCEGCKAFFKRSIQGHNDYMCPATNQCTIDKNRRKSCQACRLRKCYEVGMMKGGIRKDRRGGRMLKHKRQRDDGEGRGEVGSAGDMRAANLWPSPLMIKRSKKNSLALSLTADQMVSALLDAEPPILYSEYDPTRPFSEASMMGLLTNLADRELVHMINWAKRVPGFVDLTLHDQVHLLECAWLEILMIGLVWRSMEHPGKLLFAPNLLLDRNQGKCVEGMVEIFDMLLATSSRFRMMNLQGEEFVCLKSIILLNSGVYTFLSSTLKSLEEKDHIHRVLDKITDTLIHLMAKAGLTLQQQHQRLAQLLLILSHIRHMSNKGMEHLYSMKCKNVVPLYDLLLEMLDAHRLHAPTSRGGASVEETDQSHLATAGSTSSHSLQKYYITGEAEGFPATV
Procedure: The 30 mg/kg dose was associated with a mean AUC0-24 of 5,717 ng·h/mL. The tumor ER levels were reduced by ≥94% at all doses compared to mice administered vehicle only (FIG. 3B).
The 30 mg/kg dose was associated with a mean AUC0-24 of 5,717 ng·h/mL.

[2] = GLP cardiovascular telemetry study in beagle dogs with TK phase; assay type: in vivo, dog
Procedure: A lead-in single-dose TK and tolerability study conducted prior to the telemetry study indicated approximately dose-proportional increase in exposure between 200 and 400 mg/kg in the dog.

[3] = pH effect on absorption with famotidine in fasted rats and dogs; assay type: in vivo; details: spray-dried dispersion
opioid kappa receptor = opioid kappa receptor (Homo sapiens, UniProt P41145); experiment: Secondary pharmacodynamics binding, opioid kappa receptor; details: in vitro
Sequence of opioid kappa receptor (P41145 whole entry): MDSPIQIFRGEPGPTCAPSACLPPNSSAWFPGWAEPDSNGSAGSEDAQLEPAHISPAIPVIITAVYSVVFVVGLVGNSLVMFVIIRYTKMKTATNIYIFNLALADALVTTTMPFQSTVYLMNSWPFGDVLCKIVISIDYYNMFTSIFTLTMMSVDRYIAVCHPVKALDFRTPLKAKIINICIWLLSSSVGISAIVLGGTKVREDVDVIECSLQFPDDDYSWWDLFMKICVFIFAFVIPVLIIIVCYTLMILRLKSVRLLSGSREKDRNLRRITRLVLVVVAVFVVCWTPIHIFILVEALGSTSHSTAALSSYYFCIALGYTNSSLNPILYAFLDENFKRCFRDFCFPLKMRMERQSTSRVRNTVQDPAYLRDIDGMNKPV

[4] = Plasma protein binding, human; assay type: in vitro ADME; details: read-out: free fraction
AR = AR (Homo sapiens, UniProt P10275); experiment: Secondary pharmacodynamics binding, AR; details: in vitro
Sequence of AR (P10275 whole entry): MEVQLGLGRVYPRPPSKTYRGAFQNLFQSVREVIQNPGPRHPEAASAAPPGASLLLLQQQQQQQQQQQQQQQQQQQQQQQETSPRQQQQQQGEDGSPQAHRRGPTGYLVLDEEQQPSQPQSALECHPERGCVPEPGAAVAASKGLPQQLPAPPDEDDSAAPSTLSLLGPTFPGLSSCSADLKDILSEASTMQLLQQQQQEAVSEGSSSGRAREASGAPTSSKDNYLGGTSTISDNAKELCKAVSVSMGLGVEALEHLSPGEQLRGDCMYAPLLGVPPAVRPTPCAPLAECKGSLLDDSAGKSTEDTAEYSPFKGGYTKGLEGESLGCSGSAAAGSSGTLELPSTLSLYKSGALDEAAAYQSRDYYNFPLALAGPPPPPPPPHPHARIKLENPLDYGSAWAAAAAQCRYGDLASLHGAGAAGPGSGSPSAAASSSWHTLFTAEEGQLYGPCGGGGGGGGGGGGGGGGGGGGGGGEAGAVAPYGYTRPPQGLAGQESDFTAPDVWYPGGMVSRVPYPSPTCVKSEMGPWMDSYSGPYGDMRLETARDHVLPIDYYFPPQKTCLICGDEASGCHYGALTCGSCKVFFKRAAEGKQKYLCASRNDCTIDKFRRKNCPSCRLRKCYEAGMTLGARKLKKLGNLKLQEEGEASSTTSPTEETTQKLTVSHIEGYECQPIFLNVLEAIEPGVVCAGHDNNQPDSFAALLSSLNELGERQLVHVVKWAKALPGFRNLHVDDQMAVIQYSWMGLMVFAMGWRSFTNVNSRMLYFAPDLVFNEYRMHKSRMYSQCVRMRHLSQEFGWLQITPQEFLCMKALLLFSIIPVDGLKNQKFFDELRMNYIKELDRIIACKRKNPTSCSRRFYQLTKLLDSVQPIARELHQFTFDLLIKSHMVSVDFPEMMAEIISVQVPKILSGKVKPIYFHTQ

[5] = Turnover in liver microsomes and hepatocytes; assay type: in vitro ADME; details: across species
From the text: No human unique metabolites were observed. Although it is not thought to be formed via enzymatic conversion, the epimer Compound B was formed to a limited extent in animals.

[6] = female, human, in vivo
From the text: The severity of adverse events was graded according to the National Cancer Institute Common Terminology Criteria for Adverse Events (NCI CTCAE) version 5.0.

CK1α = CK1α (Homo sapiens, UniProt P48729); experiment: Cereblon neomorphic substrate degradation, CK1α; assay type: cell-based; details: in vitro
Sequence of CK1α (Q96SW2 whole entry partner): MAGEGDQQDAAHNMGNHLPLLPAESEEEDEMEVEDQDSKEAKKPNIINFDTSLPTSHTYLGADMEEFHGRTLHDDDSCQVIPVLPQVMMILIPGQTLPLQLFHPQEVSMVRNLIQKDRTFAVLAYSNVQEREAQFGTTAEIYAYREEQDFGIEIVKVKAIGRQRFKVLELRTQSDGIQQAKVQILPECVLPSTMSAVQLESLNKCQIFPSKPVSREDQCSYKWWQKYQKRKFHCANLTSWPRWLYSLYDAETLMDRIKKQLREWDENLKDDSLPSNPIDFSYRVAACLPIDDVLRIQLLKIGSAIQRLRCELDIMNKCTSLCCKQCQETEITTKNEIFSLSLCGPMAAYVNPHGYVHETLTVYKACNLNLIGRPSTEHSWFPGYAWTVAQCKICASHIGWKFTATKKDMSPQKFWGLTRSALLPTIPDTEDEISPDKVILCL
Sequence of CK1α (Q16531 whole entry partner): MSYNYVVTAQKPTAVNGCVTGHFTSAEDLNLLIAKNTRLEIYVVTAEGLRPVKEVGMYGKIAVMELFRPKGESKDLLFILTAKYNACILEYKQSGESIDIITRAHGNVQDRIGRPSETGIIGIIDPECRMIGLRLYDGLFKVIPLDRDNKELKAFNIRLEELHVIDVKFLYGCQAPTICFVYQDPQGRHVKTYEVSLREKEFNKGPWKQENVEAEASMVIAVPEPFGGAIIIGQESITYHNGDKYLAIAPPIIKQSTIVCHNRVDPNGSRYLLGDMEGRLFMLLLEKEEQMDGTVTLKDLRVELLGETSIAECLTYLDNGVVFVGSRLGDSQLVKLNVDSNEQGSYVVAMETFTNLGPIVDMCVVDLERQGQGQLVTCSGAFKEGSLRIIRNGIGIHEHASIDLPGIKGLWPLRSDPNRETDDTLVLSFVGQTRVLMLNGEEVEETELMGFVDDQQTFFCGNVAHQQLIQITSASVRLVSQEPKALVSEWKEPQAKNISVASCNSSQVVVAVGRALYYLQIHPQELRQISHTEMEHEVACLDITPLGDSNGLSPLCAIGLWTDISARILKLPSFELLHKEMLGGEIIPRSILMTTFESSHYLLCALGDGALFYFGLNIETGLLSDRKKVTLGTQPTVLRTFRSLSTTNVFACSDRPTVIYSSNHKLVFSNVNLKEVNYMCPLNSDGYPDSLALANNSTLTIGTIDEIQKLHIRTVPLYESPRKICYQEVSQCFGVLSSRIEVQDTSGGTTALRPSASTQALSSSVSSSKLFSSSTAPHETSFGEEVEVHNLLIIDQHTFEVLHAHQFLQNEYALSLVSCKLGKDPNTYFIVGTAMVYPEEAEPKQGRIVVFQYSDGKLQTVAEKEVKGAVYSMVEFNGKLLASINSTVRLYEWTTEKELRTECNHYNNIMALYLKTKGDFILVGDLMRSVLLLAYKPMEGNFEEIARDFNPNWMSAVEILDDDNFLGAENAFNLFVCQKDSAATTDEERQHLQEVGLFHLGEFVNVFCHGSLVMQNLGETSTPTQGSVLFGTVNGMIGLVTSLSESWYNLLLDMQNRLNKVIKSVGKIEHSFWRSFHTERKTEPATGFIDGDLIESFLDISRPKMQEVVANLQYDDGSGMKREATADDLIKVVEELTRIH
Sequence of CK1α (P48729 whole entry): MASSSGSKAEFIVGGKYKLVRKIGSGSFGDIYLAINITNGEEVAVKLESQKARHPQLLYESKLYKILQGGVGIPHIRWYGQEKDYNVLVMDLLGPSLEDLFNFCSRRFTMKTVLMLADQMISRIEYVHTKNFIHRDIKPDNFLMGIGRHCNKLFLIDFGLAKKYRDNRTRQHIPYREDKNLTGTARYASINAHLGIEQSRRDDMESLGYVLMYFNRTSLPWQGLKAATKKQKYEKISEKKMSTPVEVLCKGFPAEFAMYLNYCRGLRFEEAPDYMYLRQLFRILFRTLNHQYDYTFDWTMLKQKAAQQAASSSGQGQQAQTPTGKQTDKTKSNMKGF
From the text: These drugs bind to cereblon and promote the degradation of novel (neomorphic) substrates.

[7] = Preliminary embryo-fetal development study
[8] = rat, in vivo
[9] = Phase 2 study of Compound A or anastrozole in early ER+/HER2− breast cancer: adverse events
From the text: The study will also evaluate safety, tolerability, and clinical and pathological response after approximately 5.5 months of treatment.

GR = GR (Homo sapiens, UniProt P04150); experiment: Secondary pharmacodynamics binding, GR; details: in vitro
Sequence of GR (P04150 whole entry): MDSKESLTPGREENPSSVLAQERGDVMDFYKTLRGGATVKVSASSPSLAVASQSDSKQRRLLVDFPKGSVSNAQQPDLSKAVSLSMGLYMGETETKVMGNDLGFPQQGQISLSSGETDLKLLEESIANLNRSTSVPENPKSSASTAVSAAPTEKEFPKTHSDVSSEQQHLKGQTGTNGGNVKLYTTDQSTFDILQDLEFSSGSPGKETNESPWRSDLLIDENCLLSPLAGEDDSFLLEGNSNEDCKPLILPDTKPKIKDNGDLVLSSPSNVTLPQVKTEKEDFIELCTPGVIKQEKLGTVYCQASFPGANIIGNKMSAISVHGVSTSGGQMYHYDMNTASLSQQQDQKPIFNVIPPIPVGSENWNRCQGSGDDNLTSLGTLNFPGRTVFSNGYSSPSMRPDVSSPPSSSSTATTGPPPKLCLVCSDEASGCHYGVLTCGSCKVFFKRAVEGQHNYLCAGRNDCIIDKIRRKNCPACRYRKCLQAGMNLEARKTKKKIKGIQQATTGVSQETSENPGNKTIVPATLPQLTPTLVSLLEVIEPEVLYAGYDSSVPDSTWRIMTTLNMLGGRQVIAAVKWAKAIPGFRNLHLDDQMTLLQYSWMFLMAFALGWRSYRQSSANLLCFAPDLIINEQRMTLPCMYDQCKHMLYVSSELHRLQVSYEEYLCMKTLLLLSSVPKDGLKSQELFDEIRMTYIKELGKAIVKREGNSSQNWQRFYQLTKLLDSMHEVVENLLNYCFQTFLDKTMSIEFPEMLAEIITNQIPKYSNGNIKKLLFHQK

[10] = Plasma protein binding, rat; assay type: in vitro ADME; details: read-out: free fraction
[11] = both sexes, beagle, plasma, dog n=8, 400 mg/kg single oral, TK phase
[12] = female, Sprague-Dawley, rat, in vivo, oral, 30 mg/kg/day
[13] = TEAE, Treatment Related per title, Compound A 200 mg N = 23, Anastrozole 1 mg N = 13

## O=C1CC[C@H](N2Cc3cc(N4CCN(CC5CCN(c6ccc([C@@H]7c8ccc(O)cc8CC[C@@H]7c7ccccc7)cc6)CC5)CC4)ccc3C2=O)C(=O)N1 [Compound A, (S)-3-(5-(4-((1-(4-((1R,2S)-6-hydroxy-2-phenyl-1,2,3,4-tetrahydronaphthalen-1-yl)phenyl)piperidin-4-yl)methyl)piperazin-1-yl)-1-oxoisoindolin-2-yl)piperidine-2,6-dione]
[1]
  phototoxicity: not phototoxic
ER
  tumor ER levels reduced vs vehicle: ≥ 94%
[2]; [11]
  Cmax: 16000 ng/mL
  Tmax: 5.1 h
[2]; both sexes, beagle, plasma, dog n=8, 400 mg/kg single oral, TK phase, read-out: mean AUC0-24
  AUC(0-t): 272 µg·h/mL
[2]; dog, 400 mg/kg
  QT- or QTc-interval: no changes in QT- or QTc-interval
[2]; dog, 400 mg/kg, 1 to 3.25 hours postdose
  shortening of the PR interval: 7 ms
[2]; dog, single oral 90 and 200 mg/kg
  cardiovascular effects: No Compound A-related effects were noted
[3]
  pH effect on absorption with famotidine: lowered PK at neutral pH
Opioid kappa receptor
  binding: bound
[4]
  fraction unbound at 1 μM: 0.124
AR
  binding: bound
[5]
  turnover in liver microsomes and hepatocytes: relatively low turnover
[6]
  TEAE COVID-19: 11.8%
CK1α
  degradation of CK1α: did not degrade
[7]; 30 mg/kg
  TK animals confirmed pregnant at GD 18: 5/6
  females with pregnancy confirmed at GD 21: 7/8
[7]; 30 mg/kg/day
  post implantation loss: 47.31%
[7]; 30 mg/kg/day, controls 11.3
  mean number of live fetuses: 7.0 live fetuses/litter
[7]; 100 mg/kg
  TK animals confirmed pregnant at GD 18: 3/6
  females with pregnancy confirmed at GD 21: 4/8
[7]; 100 mg/kg/day
  mean number of live fetuses: no live fetuses/litter
  post implantation loss: 100%
[7]; 300 mg/kg
  TK animals confirmed pregnant at GD 18: 0/6
  females with pregnancy confirmed at GD 21: 0/8
[7]; [12]
  AUC(0-t): 4.38 µg·h/mL
  Cmax: 291 ng/mL
[7]; surviving fetuses, 30 mg/kg/day
  external or visceral malformations or variations: did not produce any external or visceral malformations or variations
[8]
  developmental NOAEL: could not be established
[9]; 200 mg, seven participants, 6 Jun 2023
  participants on Compound A with a treatment-related AE: 19.4%
[9]; [13]
  Anemia: 0 n (%)
  Arthralgia: 0 n (%)
  Asphyxia: 1 (4.3) n (%)
  Asthenia: 2 (8.7) n (%)
  Blood and lymphatic system disorders: 1 (4.3) n (%)
  Blood uric acid increased: 1 (4.3) n (%)
  Breast pain: 1 (4.3) n (%)
  Cardiac disorders: 1 (4.3) n (%)
  Constipation: 2 (8.7) n (%)
  Diarrhea: 1 (4.3) n (%)
  Dyspepsia: 0 n (%)
  Fatigue: 1 (4.3) n (%)
  Gastrointestinal disorders: 4 (17.4) n (%)
  General disorders and administration site conditions: 4 (17.4) n (%)
  Hematocrit decreased: 0 n (%)
  Heparin-induced thrombocytopenia: 1 (4.3) n (%)
  Hepatobiliary disorders: 3 (13.0) n (%)
  Hot flush: 3 (13.0) n (%)
  Hyperbilirubinemia: 2 (8.7) n (%)
  Hypercalcemia: 1 (4.3) n (%)
  Hyperglycemia: 2 (8.7) n (%)
  Hypernatremia: 1 (4.3) n (%)
  Hypertransaminasemia: 1 (4.3) n (%)
  Hypokalemia: 1 (4.3) n (%)
  Hyponatremia: 1 (4.3) n (%)
  Injury, poisoning and procedural complications: 1 (4.3) n (%)
  Insomnia: 1 (4.3) n (%)
  Investigations: 1 (4.3) n (%)
  Lymphopenia: 0 n (%)
  Metabolism and nutrition disorders: 2 (8.7) n (%)
  Musculoskeletal and connective tissue disorders: 0 n (%)
  Myalgia: 0 n (%)
  Nervous system disorders: 2 (8.7) n (%)
  Odynophagia: 1 (4.3) n (%)
  Procedural pain: 1 (4.3) n (%)
  Pruritus: 1 (4.3) n (%)
  Psychiatric disorders: 2 (8.7) n (%)
  Pyrexia: 1 (4.3) n (%)
  Reproductive system and breast disorders: 1 (4.3) n (%)
  Respiratory, thoracic and mediastinal disorders: 1 (4.3) n (%)
  Sinus bradycardia: 1 (4.3) n (%)
  Skin and subcutaneous tissue disorders: 1 (4.3) n (%)
  Somnolence: 2 (8.7) n (%)
  Stomatitis: 1 (4.3) n (%)
  Tension: 1 (4.3) n (%)
  Vascular disorders: 3 (13.0) n (%)
  With Any Adverse Event: 11 (47.8) n (%)
GR
  binding: bound
[10]
  fraction unbound at 1 μM: 0.082
